Marks after values point to notes of the source that are not given here.
How the values were obtained:
Format in all cases: in vivo, rat
CIA rats [1] = assay: Collagen-induced arthritis (CIA) rats, arthritis severity index; conditions: for % Inhibition Arthritis index (AUC): vs CIA + vehicle
Experimental: Male Sprague Dawley rats (7-8 weeks old, n=40) were purchased from Charles River Laboratories Inc. (Wilmington, Mass., USA) and acclimated upon arrival for two weeks before being assigned randomly to their respective treatment groups: G1=Normal control (−) (n=10/group), G2=collagen-induced arthritis (CIA)+Vehicle (0.5% Carboxy Methylcellulose) (n=10/group), G3=CIA+Methotrexate (+) (75 μg/kg) (n=10/group), and G4=CIA+AMK (+) (200 mg/kg) (n=10/group). Treatment was initiated two weeks before model induction and lasted for an additional three weeks thereafter. Collagen type-II (Lot #845) from bovine nasal septum and Incomplete Freund's adjuvant (IFA) (Lot #SLBR0642v) were purchased from Elastin Products Company (Owensville, Mich., USA) and Sigma (St. Louise, Mo., USA), respectively. All materials were kept at suitable temperatures as recommended by the manufacturer. At the time of preparation, 60 mg of collagen was weighed and added to pre-chilled 15 mL 0.1 M acetic acid in a 60 mL-sized flask with a magnetic stirrer to yield 4 mg/mL concentration (Brand, et al., 2003; Rosloniec et al., 2001).
The mixture was dissolved by gently stirring overnight at 4° C. The next morning, the dissolved collagen was emulsified with equal volume of IFA (15 mL) to achieve a final concentration of 2 mg/mL collagen. Rats sedated with isoflurane were then primed intradermally with 400 μL of the emulsified collagen at the base of their tail at two sites using a 1 mL syringe fitted with a 26 G needle. The dissolved mixture was kept in an ice bucket and stirred between groups at the time of injection to preserve uniform consistency. On the seventh day, rats were inoculated with a booster dose of 2 mg/mL type II collagen emulsified with equal volume of incomplete adjuvant at 100 μL/rat/site.
Clinical findings such as arthritis severity index, paw thickness, ankle diameter (using Digital Absolute, Model #PK-0505CPX, Mitutoyo Corporation, Kawasaki, Japan), and pain sensitivity (using Randall Salitto, IITC Life Science Inc., Woodland Hills, Calif., USA) were monitored during the course of study. Urine was collected from overnight fasted rats using metabolic cages after three weeks of treatment post-model induction. At Necropsy, serum from the cardiac and synovial lavage (100 μL of saline was injected into the articular cavity and aspirated back to the syringe) for biomarkers and ankle joint for histopathology were collected from each animal.
Linear trapezoid rule was used to calculate area under the curve (AUC) for days 9-21. % Inhibition={(Mean value of treatment-mean value of CIA+)/(Mean value of control-mean value of CIA)}*100.
Male Sprague Dawley rats (7-8 weeks old, n=40) were purchased from Charles River Laboratories Inc. (Wilmington, Mass., USA) and acclimated upon arrival for two weeks before being assigned randomly to their respective treatment groups: G1=Normal control (−) (n=10/group), G2=collagen-induced arthritis (CIA)+Vehicle (0.5% Carboxy Methylcellulose) (n=10/group), G3=CIA+Methotrexate (+) (0.5 mg/kg) (n=10/group), and G4=CIA+AP (+) (200 mg/kg) (n=10/group). Treatment was initiated two weeks before model induction and lasted for an additional three weeks thereafter. Collagen type-II (Lot #845) from bovine nasal septum and Incomplete Freund's adjuvant (IFA) (Lot #SLBR0642v) were purchased from Elastin Products Company (Owensville, Mich., USA) and Sigma (St. Louise, Mo., USA), respectively. All materials were kept at suitable temperatures as recommended by the manufacturer. At the time of preparation, 60 mg of collagen was weighed and added to pre-chilled 15 mL 0.1 M acetic acid in a 60 mL-sized flask with a magnetic stirrer to yield 4 mg/mL concentration (Brand, et al., 2003; Rosloniec et al., 2001). The mixture was dissolved by gently stirring overnight at 4° C. The next morning, the dissolved collagen was emulsified with equal volume of IFA (15 mL) to achieve a final concentration of 2 mg/mL collagen.

IL-6 = assay: CIA rats, serum IL-6 ELISA; conditions: for IL-6: serum
Experimental: The presence of catabolic cytokines IL-1β, TNF-α, or IL-6 was measured using Rat IL-1, TNF-α, and IL-6 Quantikine ELISA kit from R and D Systems (product #: RLB00 for IL-1β, RTA00 for TNF-α, and R6000B for IL-6) as follows: diluted serum was added to a microplate coated with polyclonal IL-1, TNF-α, or IL-6 antibody and allowed to bind for 2 h at room temperature. The microplate was washed thoroughly to remove unbound serum and then a polyclonal enzyme-conjugated IL-1β, TNF-α, or IL-6 antibody was added and allowed to bind for 2 h at room temperature. Washing was repeated, enzyme substrate was added, and the plate was developed for 30 min at room temperature. After the addition of stop solution, the absorbance was read at 450 nm, multiplied by dilution factor, and the concentration of IL-1β/TNF-α/IL-6 calculated based on the absorbance readings of an IL-1β/TNF-α/TL-6 standard curve.
The presence of catabolic cytokines IL-6/TNF-α was measured using the Rat IL-6/TNF-α Quantikine ELISA kit from RandD Systems as follows: undiluted serum was added to a microplate coated with polyclonal IL-6/TNF-α antibody and allowed to bind for 2 hours at room temperature. The microplate was washed thoroughly to remove unbound serum, and then a polyclonal enzyme-conjugated IL-6/TNF-α antibody was added and allowed to bind for 2 hours at room temperature. Washing was repeated, enzyme substrate was added, and the plate was developed for 30 minutes at room temperature. After the addition of stop solution, the absorbance was read at 450 nm and the concentration of IL-6/TNF-α calculated based on the absorbance readings of an IL-6/TNF-α standard curve.

CIA rats [2] = assay: CIA rats, paw thickness; design: Paw thickness (Mean): unit not given beside the values; conditions: for % Inhibition Paw thickness (AUC): vs CIA + vehicle

In the case of CN(Cc1cnc2nc(N)nc(N)c2n1)c1ccc(C(=O)N[C@@H](CCC(=O)O)C(=O)O)cc1 [Methotrexate], the “Arthritis Index, Mean” value (CIA rats [1]; CIA, MTX 75 μg/kg, AMK 200 mg/kg oral, Day 14) is reported as 0.70^¥, the “Arthritis Index, Mean” value (CIA rats [1]; CIA, MTX 75 μg/kg, AMK 200 mg/kg oral, Day 15) is reported as 1.10^€ and the “Arthritis Index, Mean” value (CIA rats [1]; CIA, MTX 75 μg/kg, AMK 200 mg/kg oral, Day 16) is reported as 1.50^€. The “Arthritis Index, Mean” value (CIA rats [1]; CIA, MTX 75 μg/kg, AMK 200 mg/kg oral, Priming) was 0.00, the “Arthritis Index, Mean” value (CIA rats [1]; CIA, MTX 75 μg/kg, AMK 200 mg/kg oral, day 17) was 1.76^€ and the “Arthritis Index, Mean” value (CIA rats [1]; CIA, MTX 75 μg/kg, AMK 200 mg/kg oral, day 19) was 2.03^€. The “Arthritis Index, Mean” value (CIA rats [1]; CIA, MTX 75 μg/kg, AMK 200 mg/kg oral, day 21 (end of study)) was 1.78±0.79, the “Arthritis Index, Mean” value (CIA rats [1]; CIA, MTX 75 μg/kg, AMK 200 mg/kg oral, day 21 (end of study), listed as MTX) was 1.78^€ and the “Arthritis Index, Mean” value (CIA rats [1]; Day 10, MTX 0.5 mg/kg, AP 200 mg/kg) was 0. For the same molecule, the “Arthritis Index, Mean” value (CIA rats [1]; Day 11, MTX 0.5 mg/kg, AP 200 mg/kg) was 0, the “Arthritis Index, Mean” value (CIA rats [1]; Day 12, MTX 0.5 mg/kg, AP 200 mg/kg) was 0.05** and the “Arthritis Index, Mean” value (CIA rats [1]; Day 13, MTX 0.5 mg/kg, AP 200 mg/kg) was 0**. The “Arthritis Index, Mean” value (CIA rats [1]; Day 14, MTX 0.5 mg/kg, AP 200 mg/kg) was 0**, the “Arthritis Index, Mean” value (CIA rats [1]; Day 15, MTX 0.5 mg/kg, AP 200 mg/kg) was 0.35** and the “Arthritis Index, Mean” value (CIA rats [1]; Day 16, MTX 0.5 mg/kg, AP 200 mg/kg) was 0.875**. The “Arthritis Index, Mean” value (CIA rats [1]; Day 17, MTX 0.5 mg/kg, AP 200 mg/kg) was 1**, the “Arthritis Index, Mean” value (CIA rats [1]; Day 19, MTX 0.5 mg/kg, AP 200 mg/kg) was 1.075** and the “Arthritis Index, Mean” value (CIA rats [1]; Day 20, MTX 0.5 mg/kg, AP 200 mg/kg) was 1.1**. For the same molecule, the “Arthritis Index, Mean” value (CIA rats [1]; Priming, MTX 0.5 mg/kg, AP 200 mg/kg) was 0.00, the “% Inhibition Arthritis index (AUC)” value (CIA rats [1]; MTX 75 μg/kg, AMK 200 mg/kg) was 62.55% and the “% Inhibition Arthritis index (AUC)” value (CIA rats [1]; MTX 0.5 mg/kg, AP 200 mg/kg) was 78.78%. For the same molecule, the “serum IL-6 inhibition compared to diseased control” value (IL-6; AMK CIA study, MTX 75 μg/kg, AMK 200 mg/kg oral) was 78.6%, the IL-6 (IL-6; AMK study, MTX (75 μg/mL), AMK (200 mg/kg)) was 10.23 ± 7.37 pg/mL and the IL-6 (IL-6; AP study, MTX (0.5 mg/mL), AP (200 mg/kg) oral 3 weeks) was 3.33 ± 6.44 pg/mL. The “percent reduction in paw thickness / paw edema (AUC) vs vehicle-treated CIA” value (CIA rats [2]; AMK CIA study, MTX 75 μg/kg, AMK 200 mg/kg oral, area under the swelling curve) was 71.7%, the “AUC(d9-d21) (Mean ± SD) Paw thickness” value (CIA rats [2]; AMK study, MTX 75 μg/kg, AMK 200 mg/kg) was 20.64 ± 0.21 and the “percent reduction in paw thickness / paw edema (AUC) vs vehicle-treated CIA” value (CIA rats [2]; AP CIA study, Methotrexate 0.5 mg/kg, AP 200 mg/kg oral) was 93.8%. For the same molecule, the “AUC(d9-d21) (Mean ± SD) Paw thickness” value (CIA rats [2]; AP study, MTX 0.5 mg/kg, AP 200 mg/kg) was 15.55 ± 0.21, the Paw thickness (CIA rats [2]; Boost, AP study, MTX 0.5 mg/kg, AP 200 mg/kg) was 2.95 ± 0.06 and the “Paw thickness (Mean)” value (CIA rats [2]; Boost, MTX 75 μg/kg, AMK 200 mg/kg) was 3.07. The “Paw thickness (Mean)” value (CIA rats [2]; Day 9, MTX 75 μg/kg, AMK 200 mg/kg) was 3.12, the “Paw thickness (Mean)” value (CIA rats [2]; Day 10, MTX 75 μg/kg, AMK 200 mg/kg) was 3.17 and the “Paw thickness (Mean)” value (CIA rats [2]; Day 11, MTX 75 μg/kg, AMK 200 mg/kg) was 3.32. The Paw thickness (CIA rats [2]; Day 12, AP study, MTX 0.5 mg/kg, AP 200 mg/kg) was 2.99 ± 0.06, the “Paw thickness (Mean)” value (CIA rats [2]; Day 12, MTX 75 μg/kg, AMK 200 mg/kg) was 3.47* and the “Paw thickness (Mean)” value (CIA rats [2]; Day 13, MTX 75 μg/kg, AMK 200 mg/kg) was 3.53*. The Paw thickness (CIA rats [2]; Day 14, AP study, MTX 0.5 mg/kg, AP 200 mg/kg) was 3.01 ± 0.03, the “Paw thickness (Mean)” value (CIA rats [2]; Day 14, MTX 75 μg/kg, AMK 200 mg/kg) was 3.60* and the “Paw thickness (Mean)” value (CIA rats [2]; Day 15, MTX 75 μg/kg, AMK 200 mg/kg) was 3.98^†. For the same molecule, the Paw thickness (CIA rats [2]; Day 16, AP study, MTX 0.5 mg/kg, AP 200 mg/kg) was 3.21 ± 0.05, the “Paw thickness (Mean)” value (CIA rats [2]; Day 16, MTX 75 μg/kg, AMK 200 mg/kg) was 4.32^† and the “Paw thickness (Mean)” value (CIA rats [2]; Day 17, MTX 75 μg/kg, AMK 200 mg/kg) was 3.96^¥. For the same molecule, the Paw thickness (CIA rats [2]; Day 18, AP study, MTX 0.5 mg/kg, AP 200 mg/kg) was 3.25 ± 0.05, the “Paw thickness (Mean)” value (CIA rats [2]; Day 19, MTX 75 μg/kg, AMK 200 mg/kg) was 3.06^¥ and the Paw thickness (CIA rats [2]; Day 20, AP study, MTX 0.5 mg/kg, AP 200 mg/kg) was 3.23 ± 0.06. The “Paw thickness (Mean)” value (CIA rats [2]; Day 21, MTX 75 μg/kg, AMK 200 mg/kg) was 3.07^€, the Paw thickness (CIA rats [2]; Priming, AP study, MTX 0.5 mg/kg, AP 200 mg/kg) was 2.93 ± 0.07 and the “Paw thickness (Mean)” value (CIA rats [2]; Priming, MTX 75 μg/kg, AMK 200 mg/kg) was 3.06. For the same molecule, the “% Inhibition Paw thickness (AUC)” value (CIA rats [2]; MTX 75 μg/kg, AMK 200 mg/kg) was 71.71% and the “% Inhibition Paw thickness (AUC)” value (CIA rats [2]; MTX 0.5 mg/kg, AP 200 mg/kg) was 93.81%.

— patent US20220000964A1, “Compositions and Methods for Regulating Homeostasis of Chondrocytes, Extracellular Matrix, Articular Cartilage, and Phenotype of Arthritis” (Unigen, Inc., priority 2020, published 2022)
